From US20210214401A1, “MANUFACTURING METHOD OF NANODISC COMPRISING AN OLFACTORY RECEPTOR PROTEIN AND NANODISC COMPRISING AN OLFACTORY RECEPTOR PROTEIN MANUFACTURED BY THE SAME” (SEOUL NATIONAL UNIVERSITY R&DB FOUNDATION, priority 2017, published 2021)

Tests used:
[1] = biological target: T1, TAAR13c (Danio rerio, UniProt Q5QNP2); experiment: Dual-Glo Luciferase assay, TAAR13c-expressing HEK-293 cells; format: cell-based, zebrafish (Danio rerio)
T1 construct: expressed in transfected cells; host or cells: HEK-293
T1 sequence (Q5QNP2 1-341): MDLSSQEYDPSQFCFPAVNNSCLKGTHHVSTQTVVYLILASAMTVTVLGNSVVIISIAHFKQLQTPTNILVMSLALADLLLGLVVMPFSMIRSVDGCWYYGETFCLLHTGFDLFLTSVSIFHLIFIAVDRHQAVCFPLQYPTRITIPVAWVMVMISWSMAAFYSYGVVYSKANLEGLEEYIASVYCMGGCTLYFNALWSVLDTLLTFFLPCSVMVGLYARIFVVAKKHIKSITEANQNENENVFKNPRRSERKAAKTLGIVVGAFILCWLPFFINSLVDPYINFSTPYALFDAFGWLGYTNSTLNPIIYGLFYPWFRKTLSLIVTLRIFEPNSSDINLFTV
Description: Human embryonic kidney (HEK)-293 cells were cultured in Dulbecco's Modified Eagles Medium (DMEM) (HyClone, USA) containing 1% penicillin, 1% streptomycin (Gibco, USA) and 10% Fetal Bovine Serum (FBS)(Gibco, USA), under the conditions of 37° C. and 5% C02. Transfection was performed by the following method using Lipofectamine® 3000. Specifically, the cells were transfected with a DNA mixture containing TAAR13c, pCRE-Luc, pSV40-RL, Gαolf, and Receptor-transporting protein 1 short (RTP1S) using Lipofectamine® 3000. The characteristics against cadaverine were confirmed using the TAAR13c produced in Example 4 by the Dual-Glo Luciferase assay system. Specifically, the transfected cells were cultured in DMEM medium (50 μL) for 30 minutes, and an odorant (25 μL) designed to the desired concentration was added thereto, and cultured for 4 hours. Then, the Dual-Glo Luciferase reagent (20 μL) was added thereto, cultured at room temperature for 10 minutes, and the firefly luciferase luminescence was measured using the luminescence plate reader. Then, the Dual-Glo Stop-n-Glo reagent (20 μL) was added to the measured sample, and the mixture was cultured at room temperature for 10 minutes, and the Renilla luciferase luminescence was measured. The measured data was analyzed using the following formula. […]

[2] = test system: HEK-293 cells transfected with a random vector (MocK); experiment: Dual-Glo Luciferase assay, cells transfected with a random vector (MocK); format: cell-based, Human; conditions: Comparative Example, FIG. 5
[3] = biological target: T2, TAAR13c-embedded nanodiscs (T13NDs) (Danio rerio, UniProt Q5QNP2); experiment: Real-time intrinsic tryptophan fluorescence of T13ND; format: binding, zebrafish (Danio rerio); conditions: excitation 290 nm; emission 340 nm; FIG. 11
T2 construct: His tag (from pET-DEST42) (C); made in house; host or cells: E. coli BL21 (DE3)
T2 sequence (Q5QNP2 1-341): T1 sequence (Q5QNP2 1-341)
Description: The intrinsic fluorescence of T13NDs was measured real time using the LS 55 luminescence spectrometer (Perkin Elmer, USA) (excitation 290 nm; emission 340 nm). The real-time measurement of intrinsic fluorescence of TAAR13c was measured at various amine concentrations of 1 mM to 10 mM.

## NCCCCCN [CV, cadaverine]
[1]; FIG. 6
  selectivity of TAAR13c response among various amines (cell-based): showed a response only against CV
[1]; concentration-dependent treatment of CV, 4 hours, FIG. 5
  response of TAAR13c-expressing cells to CV (normalised CRE/Renilla luciferase): significant response
[2]
  response of Mock-transfected cells to CV (normalised CRE/Renilla luciferase): did not show any significant response
[3]
  real-time tryptophan fluorescence of T13ND with increasing concentration of CV: T13ND has an affinity for CV
